# Reference: a melting point compilation (Tetko et al.; mined from patent text by program, amines drawn as free bases though some values may be those of a salt)
row,Structure (SMILES),melting point [°C]
1,COc1ccccc1-c1ccc(C[C@H](NC(=O)c2c(Cl)cccc2Cl)C(=O)O)cc1C(C)=O,87 to 89
2,O=Cc1ncc(C(O)C(F)(F)F)s1 (stereo unspecified),64 to 66
3,Cc1c(Cl)ccc([N+](=O)[O-])c1N,164 to 165
4,CN1CCC(c2c[nH]c3cc(F)c(OS(=O)(=O)c4c(F)cccc4F)cc23)CC1,202
5,COC(=O)c1nc(OC)sc1-c1ccccc1,86 to 88
6,CS(=O)(=O)Nc1ccc2c(c1)C(=O)CC1(CCN(CCc3ccc(Cl)nc3)CC1)O2,213 to 215
7,CCNC(=O)Nc1cc(C(=O)OC)c(O)c2ncc(Cc3ccc(F)cc3)cc12,280 to 282
8,CNc1nc(C)c(-c2nc3ccccc3c(=O)n2-c2ccccc2C)s1,218 to 220
9,CCOc1ccccc1OS(N)(=O)=O,62 to 65
10,CCNc1nc(C)c(-c2ccnc(Nc3ccc(N4CCN(C(C)=O)CC4)cc3)n2)s1,208 to 209
11,CC(C)(C)CNC(=O)Oc1ccccc1,77 to 78
12,c1ccc(C(c2ccccc2)(c2ccns2)n2ccnc2)cc1,164 to 167
13,CCOC(=O)c1c(Nc2ccccc2C)n[nH]c1C,156 to 160
14,Cc1nnc(-c2ccc3ccn(-c4ccc(S(C)(=O)=O)cc4)c3c2)o1,228 to 229
15,CCCCc1ncc(/C=C(\Cc2ccc(OC)cc2)c2nnn[nH]2)n1Cc1ccccc1Cl,168 to 171
16,CON(C(=O)c1ccoc1C)C1CCCCC1,46
17,O=C(c1ccc([N+](=O)[O-])cc1)c1ccc2[nH]c(=O)sc2c1,148 to 152
18,CCCC#CC[C@H](C[C@H](N)C(=O)O)C(=O)O,200 to 201
19,CCCC(CCC)n1nnc2c(Oc3c(Br)cc(C(C)C)cc3OC)nc(C)nc21,129 to 131
20,O=C1OC(=O)c2c3ccccc3c(Cl)c3cccc1c23,269 to 271
21,CC(=O)c1cc2cc(O)c(Cl)c(Cl)c2s1,199 to 201
22,Cc1cc(C)cc(NCc2ccc3nc(NC4CCN(CCS(N)(=O)=O)CC4)n(Cc4nc(C)ccc4O)c3c2)c1,142
23,CCOC(=O)CN1CC(=O)N(C)c2ccc([N+](=O)[O-])cc2C1=O,129 to 130
24,COC(=O)C(=O)CC(=O)c1ccccn1,86 to 87
25,CCCC(=O)Nc1n[nH]c2cc(-c3ccc([N+](=O)[O-])cc3)ccc12,250
26,O=C1c2c(Cl)cccc2-n2cnc(-c3nc(CN4CCCC4)cs3)c2[C@@H]2CCCN12,213 to 214

row,Structure (SMILES),melting point [°C]
1,N#Cc1c(OCc2ccc(F)cc2F)ccn(Cc2cccc(F)c2)c1=O,187 to 190
2,Cc1nc(N2CCN(Cc3ccc(OC(F)(F)F)cc3)C2=O)sc1C(=O)NCCC1CC1,195 to 196
3,O=C(NCC(=O)c1ccco1)c1ccc(F)cc1,153 to 155
4,C=CCNc1c(NC(CC)CC)cc(C)nc1Oc1c(C)cc(C)cc1C,86 to 88
5,Cn1nc(-c2c(Cl)cccc2Cl)nc1-c1sc(Br)c(Cl)c1Cl,197 to 199
6,CCOC(=O)Oc1cc2c(s1)CCN([C@H](C(=O)OC)c1ccccc1Cl)C2,42 to 44
7,CC(C)Cn1c(Nc2cc(C(F)(F)F)ccc2C(F)(F)F)nc(C(F)(F)F)cc1=O,136 to 138
8,O=C1CCN(Cc2cccc(C(F)(F)F)c2)CC1C(c1ccccc1)c1ccccc1 (stereo unspecified),128 to 129
9,C[C@@]1(C(=O)O)Oc2ccccc2NC1=O,168 to 171
10,N#Cc1c(Cl)nc2cscc2c1Cl,228
11,C=CCNc1nc(C)c(C(=O)c2ccc(N)c([N+](=O)[O-])c2)s1,250 to 252
12,COc1cc2c(c3c1OC(C)(C)C3)C(c1cccc(Nc3ccccc3)c1)=NC(C)(C)C2,87 to 88
13,CC(C)Cc1cncc(O)n1,130 to 131
14,Cc1nn(C)c(-c2ccccc2)c1NC1=NCCN1,232 to 234
15,CC(=O)Nc1c2c(cc3c1CCC3)CCC2,257 to 259
16,CNC(=O)c1cc(C(=O)c2ccccc2)ccc1N,140
17,CCCCCCCCCCCCNC(=O)n1nc(Oc2ncc(C(F)(F)F)cc2Cl)c(Cl)c1C,68 to 70
18,COc1c(C#N)cc(-c2c3ccccc3cc3sc4ccccc4c23)cc1C#N,214 to 215
19,CCS(=O)(=O)N(Cc1ccccc1)Cc1ccc2[nH]cc(CCCN3CCN(c4ncncc4OC)CC3)c2c1,73 to 75
20,CCOC(=O)C(O)=CC=C(SC)C(=O)c1ccc(N2CCCCC2)cc1,65
21,COc1ccc2c(c1)CCc1c(Cl)cccc1S2,73 to 74
22,O=C(CN1C(=O)c2ccccc2C1=O)Nc1ccccc1Cl,250
23,CN(Cc1sc2c(=O)c(C(=O)NCc3ccc(Cl)cc3)cn(C)c2c1COCC[Si](C)(C)C)C[C@@H](O)c1ccco1,110 to 113
24,O=c1cc(NCCN2CCN(c3ccccc3F)CC2)cn[nH]1,103 to 105
25,O=C1C(=O)c2ccc(Br)cc2C2=C1SCC1(CCN(CC(O)Cc3ccccc3)CC1)O2 (stereo unspecified),82 to 83
